Patent US11779628B2, “Use of cell-permeable peptide inhibitors of the JNK signal transduction pathway for the treatment of various diseases” (Xigen Inflammation Ltd., priority 2014, dated 2023)

Test system: Hep G2 human hepatocarcinoma tumor
Assay: Orthotopic HEP G2 human liver carcinoma, dose/response
Assay type: in vivo, mice
Conditions: 0.1, 1, 5 mg/kg/inj IV, Q4Dx4
Procedure: The objective of this study was to determine the antitumor activity of XG-102 (dose/response) in the model of SWISS Nude mice bearing the orthotopic Hep G2 human hepatocarcinoma tumor.
For XG-102 administration XG-102 was prepared at the concentration of 1 mg/ml with sterile water (WFI, Aguettant, France). Lt was then cliluted at the concentrations of 0.2 and 0.02 mg/ml with sterile water. All these steps were performed within one hour prior to injection to mice. XG-102 was injected at 0.1, 1 and 5 mg/kg/inj. Four injections were performed, each separated by four days (Q4Dx4).
Twenty four hours before tumor induction, 32 female SWISS Nude mice were irradiated with a γ-source (2.5 Gy, Co^60, INRA, Dijon, France). […]
Mice were monitored every day throughout the study for behaviour and survival. The body weight was monitored twice a week for all mice throughout the study. […]
At D67, 3 mice randomly selected per group during randomization were sacrificed for observation of macroscopic development. […] Histological sections were analyzed by a pathologist expert to determine the metastatic invasion in liver.
For the body weight analysis body weight curves of mice were drawn. Mean body weight change (MBWC): Average weight change of treated animals in grams (weight at day X minus weight at D10) was calculated.
Efficacy parameters were expressed as a percent (T/C %). […]

## CC(C)C[C@@H](NC(=O)[C@@H](Cc1ccccc1)NC(=O)[C@H]1CCCN1C(=O)[C@@H](CCC(N)=O)NC(=O)[C@H](NC(=O)[C@H]1CCCN1C(=O)[C@@H](CCCNC(=N)N)NC(=O)[C@@H](CO)NC(=O)[C@@H](CCC(N)=O)NC(=O)[C@H](N)CC(=O)O)C(C)C)C(=O)N[C@H](CC(N)=O)C(=O)N[C@H](CC(C)C)C(=O)N[C@@H](C(=O)N[C@@H](C(=O)N1CCC[C@@H]1C(=O)N[C@H](CCCNC(=N)N)C(=O)N[C@H](CCCCN)C(=O)N1CCC[C@@H]1C(=O)N[C@H](CCCNC(=N)N)C(=O)N1CCC[C@@H]1C(=O)N1CCC[C@@H]1C(=O)N[C@H](CCCNC(=N)N)C(=O)N[C@H](CCCNC(=N)N)C(=O)N[C@H](CCCNC(=N)N)C(=O)N[C@H](CCC(N)=O)C(=O)N[C@H](CCCNC(=N)N)C(=O)N[C@H](CCCNC(=N)N)C(=O)N[C@H](CCCCN)C(=O)N[C@H](CCCCN)C(=O)N[C@H](CCCNC(=N)N)C(=O)NCC(=O)O)[C@H](C)O)[C@H](C)O [XG-102]
  body weight: no apparent differences occurred for the body weight
